Data taken from BigSolDB 2.1.

O=C(O)c1cccnc1
solubility (mole fraction)
Settings | in DMSO | in acetone | in ethanol | in ethyl acetate | in isopropanol | in methanol | in n-butanol | in n-propanol | in water
283.15 K | 0.0437 | 0.00062 | 0.00202 | 0.00033 | 0.00177 | 0.00238 | 0.0014 | 0.00179 | 0.00165
293.15 K | 0.0576 | 0.00104 | 0.00312 | 0.00054 | 0.00276 | 0.00382 | 0.00231 | 0.00285 | 0.00215
303.15 K | 0.0722 | 0.00166 | 0.00468 | 0.00093 | 0.00418 | 0.00587 | 0.00351 | 0.00435 | 0.00279
313.15 K | 0.0889 | 0.00262 | 0.00683 | 0.00149 | 0.00617 | 0.00889 | 0.00554 | 0.00641 | 0.00363
323.15 K | 0.107 | 0.00408 | 0.00978 | 0.00246 | 0.00891 | 0.0129 | 0.00855 | 0.00923 | 0.00458
333.15 K | 0.127 | – | 0.0136 | 0.00401 | 0.0125 | – | 0.0123 | 0.0131 | 0.00576
343.15 K | 0.15 | – | 0.0188 | 0.00603 | 0.0172 | – | 0.0178 | 0.0186 | 0.00704
353.15 K | – | – | – | – | – | – | 0.0253 | – | 0.00872
363.15 K | – | – | – | – | – | – | – | – | 0.0107
